Source: EP0561850B1, “7-SUBSTITUTED-6-FLUORO-1,4-DIHYDRO-4-OXO-QUINOLINE-3-CARBOXYLIC ACID COMPOUNDS USEFUL AS ANTIBACTERIAL AGENTS” (priority 1990, dated 1992)
Converted amounts (≈) assume the structure as drawn.

Experiments:
Type in all cases: cell-based
[1] = tested on: Staphylococcus aureus S-127; test: In vitro antimicrobial activity against aerobes, broth microdilution (NCCLS 1985); details: S127, read after 16-18 hours
Method: (§1) For aerobic microorganisms, a cation supplemented Mueller Hinton Broth (BBL) was used whereas the Anaerobe Broth MIC (Difco) was used for anaerobic microorganisms. An agar Dilution method was employed for certain aerobic microorganisms using Mueller Hinton II Agar (BBL) and a Cathra multipoint inoculating device which delivered 10^4 cfu/spot of the inoculum on the agar surface. MICs were read after 16-18 hours and 48 hours of incubation in case of microbes growing aerobically and anaerobically respectively.

[2] = tested on: Streptococcus intermedius AN-19; test: In vitro antimicrobial activity against anaerobes, broth microdilution; details: AN19; Streptococcus intermedius AN-19; anaerobes; read after 48 hours; read-out: MIC
Excerpt: as §1, with “The compounds of the invention display antibacterial activity when tested by the broth microdilution method as described in the NCCLS publications M7-A, M11-A and M17-P of the year 1985. For” for “For”
(§2) By use of the above method, the following minimum inhibitory concentration values (MICs in µg/ml) were obtained: Table 1, against microbes growing aerobically; Table 2, against microbes growing anaerobically; Table 3, against methicillin resistant Staphylococcus aureus and quinoline resistant-methicillin resistant Staphylococcus aureus.

[3] = tested on: Propionobacterium acne AN-17; test: as above; details: Propionobacterium acne AN-17; anaerobes; read after 48 hours; read-out: MIC
Excerpt: as §1, with “The compounds of the invention display antibacterial activity when tested by the broth microdilution method as described in the NCCLS publications M7-A, M11-A and M17-P of the year 1985. For” for “For”
as §2

[4] = tested on: Peptostreptococcus asaccharolyticus AN-16; test: as above; details: Peptoniphilus asaccharolyticus, AN16; Peptostreptococcus asaccharolyticus AN-16; anaerobes; read after 48 hours; read-out: MIC
Excerpt: as §1, with “The compounds of the invention display antibacterial activity when tested by the broth microdilution method as described in the NCCLS publications M7-A, M11-A and M17-P of the year 1985. For” for “For”
as §2

[5] = tested on: Fusobacterium mortiferum AN-13; test: as above; details: AN13; Fusobacterium mortiferum AN-13; anaerobes; read after 48 hours; read-out: MIC
Excerpt: as §1, with “The compounds of the invention display antibacterial activity when tested by the broth microdilution method as described in the NCCLS publications M7-A, M11-A and M17-P of the year 1985. For” for “For”
as §2

[6] = tested on: Bacteroides fagilis AN-2; test: as above; details: AN2; Bacteroides fagilis AN-2; anaerobes; read after 48 hours; read-out: MIC
Excerpt: as §1, with “The compounds of the invention display antibacterial activity when tested by the broth microdilution method as described in the NCCLS publications M7-A, M11-A and M17-P of the year 1985. For” for “For”
as §2

[7] = tested on: Methicillin Resistant S. aureus (MRSAs); test: In vitro antimicrobial activity against methicillin resistant S. aureus; details: Staphylococcus aureus; MRSA (6 C.I.), C.I. = Clinical Isolates
Method: as §1

[8] = tested on: Quinoline Resistant MRSAs (QRMRSAs); test: In vitro antimicrobial activity against quinoline resistant MRSA; details: Staphylococcus aureus; QRMRSA (8 C.I.), C.I. = Clinical Isolates
Method: as §1

How did the MIC [1] turn out when `C[C@@H]1CN(c2c(F)c(N)c3c(=O)c(C(=O)O)cn(C4CC4)c3c2F)C[C@H](C)N1` [Sparfloxacin, reference compound] was run?
The MIC was 0.06 µg/mL (≈ 0.153 µM).

What about the MIC [2] of the same compound?
Its MIC is 0.5 µg/mL (≈ 1.27 µM).

What about the MIC [3] of the same compound?
Its MIC is 1 µg/mL (≈ 2.55 µM).

What about the MIC [4] of the same compound?
Its MIC is 4 µg/mL (≈ 10.2 µM).

And the MIC [5]?
Its MIC is 0.5 µg/mL (≈ 1.27 µM).

And the MIC [6]?
Its MIC is 2 µg/mL (≈ 5.1 µM).

And the MIC [7]?
Its MIC is 0.03 to 0.12 µg/mL (≈ 0.0765 to 0.306 µM).

What about the MIC [8] of the same compound?
Its MIC is 4 to 16 µg/mL (≈ 10.2 to 40.8 µM).
